What was measured:
α1B receptor = molecular target: T1, α1B receptor (Rattus norvegicus, UniProt P15823); experiment: Radioligand binding with [3H]prazosine (in the presence of WB 4101), affinity for α1B receptor subtype; conditions: membranes from rat brain cortex, subtype-selective substances tested again in the presence of 3 nmol/l WB 4101, Cheng and Prusoff, read-out: Receptor affinity α1B, expressed in pKI values (converted)
T1 construct: membranes from rat brain cortex; from tissue; host or cells: rat brain cortex membranes
T1 sequence (P15823 1-515): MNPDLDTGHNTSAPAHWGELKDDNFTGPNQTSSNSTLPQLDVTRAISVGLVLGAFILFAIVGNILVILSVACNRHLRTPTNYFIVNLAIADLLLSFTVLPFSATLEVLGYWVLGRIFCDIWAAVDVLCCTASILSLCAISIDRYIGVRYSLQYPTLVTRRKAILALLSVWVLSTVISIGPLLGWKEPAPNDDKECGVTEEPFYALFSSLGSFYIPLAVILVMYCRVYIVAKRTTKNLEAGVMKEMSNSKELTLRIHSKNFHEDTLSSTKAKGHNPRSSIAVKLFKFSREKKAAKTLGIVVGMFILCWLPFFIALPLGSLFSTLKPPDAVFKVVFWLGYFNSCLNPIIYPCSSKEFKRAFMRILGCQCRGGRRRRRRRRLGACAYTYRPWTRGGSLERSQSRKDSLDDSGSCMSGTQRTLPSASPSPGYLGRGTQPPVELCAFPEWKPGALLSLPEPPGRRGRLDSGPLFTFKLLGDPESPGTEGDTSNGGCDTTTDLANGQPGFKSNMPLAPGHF
Protocol: (§1) The affinity of substances for α1 receptor subtypes was determined in radioligand binding studies using [^3 H]prazosine as a radioligand. 50-200 μg of membranes from rat brain cortex were incubated in a total volume of 0.5-1 ml with [^3 H]prazosine (0.2 to 0.5 nmol/l) in the presence of rising concentrations of substances. The incubation buffer used was 50 mmol/l tris/HCl pH 7.5, 1 mmol/l EDTA, 0.1 mmol/l PMSF. The nonspecific binding was determined in separate batches in the presence of 10 μmol/l of phentolamine or 1 μmol/l of prazosine. After 1 h at 37° C., the bound radioactivity was separated from the free radioactivity by rapid filtration of the incubation batch at 0° C. through glass fiber filters. The filters were washed twice with 3.5 ml each of cold filtration buffer (50 mmol/l tris/HCl pH 7.4, 10 mmol/l MgCl2, 10% polyethylene glycol 6000). The filter-bound radioactivity was determined by liquid scintillation counting. Substances with subtype selectivity for the α1 receptor subtypes were tested again in the presence of 3 nmol/l of WB 4101. WB4101 blocks the binding of [^3 H]prazosine to the α1A receptor subtype and the remaining binding corresponds to that to the α1B receptor.
(§2) For each substance, dose-response curves were plotted by means of nonlinear regression using the Inplot program (GraphPad, Sorento, Calif., USA). IC50 values were corrected by the concentration of the radioligand employed according to the formula of Cheng and Prusoff. The resulting KI values (see following table) represent the affinity of the respective substance for the tested receptor. The compounds according to the invention investigated according to the model illustrated in greater detail above have been provided in the following table with numbers which correspond to the numbers of these compounds in the examples.

5-HT1A receptor = molecular target: T2, 5-HT1A receptor (Sus scrofa, UniProt A0A4X1UTF5); experiment: Radioligand binding with [3H]8-OH-DPAT, affinity for 5-HT1A receptor; conditions: membranes from pig brain cortex, IC50 corrected according to Cheng and Prusoff, read-out: Receptor affinity 5-HT1A, expressed in pKI values (converted)
T2 construct: membranes from pig brain cortex; from tissue; host or cells: pig brain cortex membranes
T2 sequence (A0A4X1UTF5 1-422): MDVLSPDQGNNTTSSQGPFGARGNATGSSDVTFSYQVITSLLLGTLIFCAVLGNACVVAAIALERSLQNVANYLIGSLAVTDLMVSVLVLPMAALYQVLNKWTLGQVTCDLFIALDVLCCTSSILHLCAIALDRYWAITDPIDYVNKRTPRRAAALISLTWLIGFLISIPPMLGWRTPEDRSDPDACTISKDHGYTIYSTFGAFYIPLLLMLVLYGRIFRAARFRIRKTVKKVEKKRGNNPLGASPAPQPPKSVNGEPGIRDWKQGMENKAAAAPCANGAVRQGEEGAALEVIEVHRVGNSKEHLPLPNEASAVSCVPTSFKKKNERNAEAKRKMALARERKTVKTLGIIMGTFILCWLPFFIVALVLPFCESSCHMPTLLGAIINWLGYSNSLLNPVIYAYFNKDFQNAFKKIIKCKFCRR
Protocol: The affinity of substances for the 5-HT1A receptor was determined in radioligand binding studies using [^3 H]8-OH-DPAT as a radioligand. 50-150 μg of membranes from pig brain cortex were incubated in a total volume of 0.25-0.5 ml with [^3 H]8-OH-DPAT (0.2 to 0.4 nmol/l) in the presence of rising concentrations of substances. The incubation buffer used was 50 mmol/l tris/HCl pH 8.2, 1 mmol/l MnCl2. The nonspecific binding was determined in separate batches in the presence of 10 μmol/l of 5-HT. After 30 min at 23° C., the bound radioactivity was separated from the free radioactivity by rapid filtration of the incubation batch at 0° C. through glass fiber filters. The filters were washed twice with 3.5 ml each of cold filtration buffer (50 mmol/l tris/HCl pH 7.4, 10 mmol/l MgCl2, 10% polyethylene glycol 6000). The filter-bound radioactivity was determined by liquid scintillation counting.
as §2

α1A receptor = molecular target: T3, α1A receptor (Rattus norvegicus, UniProt P43140); experiment: Radioligand binding with [3H]prazosine, affinity for α1A receptor subtype; conditions: membranes from rat brain cortex, IC50 corrected according to Cheng and Prusoff, read-out: Receptor affinity α1A, expressed in pKI values (converted)
T3 construct: membranes from rat brain cortex; from tissue; host or cells: rat brain cortex membranes
T3 sequence (P43140 1-466): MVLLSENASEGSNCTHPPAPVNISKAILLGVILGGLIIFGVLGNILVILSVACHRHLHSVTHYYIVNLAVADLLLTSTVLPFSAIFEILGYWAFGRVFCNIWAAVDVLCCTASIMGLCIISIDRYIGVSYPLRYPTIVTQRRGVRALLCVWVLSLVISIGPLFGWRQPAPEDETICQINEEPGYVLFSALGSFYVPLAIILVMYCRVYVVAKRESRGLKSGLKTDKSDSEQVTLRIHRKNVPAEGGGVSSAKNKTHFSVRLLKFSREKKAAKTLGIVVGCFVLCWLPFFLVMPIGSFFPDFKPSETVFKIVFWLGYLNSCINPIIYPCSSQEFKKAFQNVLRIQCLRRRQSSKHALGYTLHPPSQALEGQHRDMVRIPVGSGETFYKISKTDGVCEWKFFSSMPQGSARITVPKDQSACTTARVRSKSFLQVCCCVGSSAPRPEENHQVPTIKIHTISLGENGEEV
Protocol: as §1, §2

SMILES | Ki (α1B receptor) [nM] | Ki (5-HT1A receptor) [nM] | Ki (α1A receptor) [nM]
COc1ccccc1N1CCN(CCCNc2c(OC)c(=O)n(C)c(=O)n2C)CC1 [Compound 17] | 50.1 | 2.51 | 50.1
COc1ccccc1N1CCN(CCCNC2=CC(=O)N(C)S(=O)(=O)N2C)CC1 [Compound 18, 5-{3-[4-(2-Methoxyphenyl)piperazin-1-yl]-propylamino}-2,6-dimethyl-1,1-dioxo-6H-[1,2,6]thiadiazin-3-one] | 126 | 15.8 | 6.31
COc1ccccc1N1CCN(CCCNc2cc(=S)n(C)c(=O)n2C)CC1 [Compound 19, 6-{3-[4-(2-Methoxyphenyl)piperazin-1-yl]-propylamino}-1,3-dimethyl-4-thioxo-3,4-dihydro-1H-pyrimidin-2-one] | 31.6 | 10 | 31.6
COc1cc(N)ccc1N1CCN(CCCNc2c(C)c(=O)n(C)c(=O)n2C)CC1 [Compound 20, 1,3,5-Trimethyl-6-[[3-[4-(4-amino-2-methoxyphenyl)-1-piperazinyl]propyl]amino]-2,4(1H,3H)-pyrimidinedione] | 6310 | 2 | 100
COc1cc(NC(C)=O)ccc1N1CCN(CCCNc2c(C)c(=O)n(C)c(=O)n2C)CC1 [Compound 21, 1,3,5-Trimethyl-6-[[3-[4-(4-acetylamino-2-methoxyphenyl)-1-piperazinyl]propyl]amino]-2,4(1H,3H)pyrimidinedione] | > 10000 | 5.01 | > 10000

From US6046329A, “Uracil derivatives” (Byk Gulden Lomberg Chemische Fabrik GmbH, priority 1994, dated 2000)
